Results: PMC11012124, “Synthesis of Novel Triazine-Based Chalcones and 8,9-dihydro-7H-pyrimido[4,5-b][1,4]diazepines as Potential Leads in the Search of Anticancer, Antibacterial and Antifungal Agents” (International Journal of Molecular Sciences, 2024)

Experiments:
Test in all cases: cells
CCRF-CEM = conditions: Homo sapiens, 48 h
HL-60(TB) = conditions: Homo sapiens, HL-60, 48 h
K-562 = conditions: Homo sapiens, K562, 48 h
EKVX = conditions: Homo sapiens, 48 h
HOP-62 = conditions: Homo sapiens, HOP-62, 48 h
NCI-H322M = conditions: Homo sapiens, 48 h
NCI-H460 = conditions: Homo sapiens, NCI-H460, 48 h
COLO 205 = conditions: Homo sapiens, COLO 205, 48 h
HCC-2998 = conditions: Homo sapiens, HCC 2998, 48 h
HCT-15 = conditions: Homo sapiens, HCT-15, 48 h
HT29 = conditions: Homo sapiens, HT-29, 48 h
KM12 = conditions: Homo sapiens, KM12, 48 h
SF-268 = conditions: Homo sapiens, SF-268, 48 h
SF-295 = conditions: Homo sapiens, SF-295, 48 h
SF-539 = conditions: Homo sapiens, SF-539, 48 h
MALME-3M = conditions: Homo sapiens, 48 h
M14 = conditions: Homo sapiens, M14, 48 h
SK-MEL-28 = conditions: Homo sapiens, SK-MEL-28, 48 h
SK-MEL-5 = conditions: Homo sapiens, SK-MEL-5, 48 h
UACC-257 = conditions: Homo sapiens, UACC-257, 48 h
UACC-62 = conditions: Homo sapiens, UACC-62, 48 h
OVCAR-3 = conditions: Homo sapiens, OVCAR-3, 48 h
OVCAR-4 = conditions: Homo sapiens, OVCAR-4, 48 h
OVCAR-5 = conditions: Homo sapiens, OVCAR-5, 48 h
OVCAR-8 = conditions: Homo sapiens, OVCAR-8, 48 h
SK-OV-3 = conditions: Homo sapiens, SK-OV-3, 48 h
786-0 = conditions: Homo sapiens, 786-0, 48 h
A498 = conditions: Homo sapiens, A498, 48 h
CAKI-1 = conditions: Homo sapiens, CAKI-1, 48 h
RXF 393 = conditions: Homo sapiens, RXF 393, 48 h
SN12C = conditions: Homo sapiens, 48 h
TK-10 = conditions: Homo sapiens, TK-10, 48 h
UO-31 = conditions: Homo sapiens, UO-31, 48 h
MCF7 = conditions: Homo sapiens, MCF7, 48 h
HS 578T = conditions: Homo sapiens, 48 h
MDA-MB-468 = conditions: Homo sapiens, MDA-MB-468, 48 h

Compound: CN(C)c1nc(NCCNS(=O)(=O)c2ccc(C(=O)/C=C/c3ccc(Cl)cc3)cc2)nc(N2CCOCC2)n1 [23e]
- GI50 (CCRF-CEM): 6.86 µM
- CC50 (CCRF-CEM; read-out: LC50): > 100 µM
- GI50 (HL-60(TB)): 14.7 µM
- CC50 (HL-60(TB); read-out: LC50): > 100 µM
- GI50 (K-562; K-562, 48 h): 3.71 µM
- CC50 (K-562; read-out: LC50): > 100 µM
- GI50 (EKVX): 14.8 µM
- CC50 (EKVX; read-out: LC50): 55.7 µM
- GI50 (HOP-62): 17.5 µM
- CC50 (HOP-62; read-out: LC50): 65.8 µM
- GI50 (NCI-H322M): 14.4 µM
- CC50 (NCI-H322M; read-out: LC50): 52.4 µM
- GI50 (NCI-H460): 16.8 µM
- CC50 (NCI-H460; read-out: LC50): 67.1 µM
- GI50 (COLO 205): 16.7 µM
- CC50 (COLO 205; read-out: LC50): 70.8 µM
- GI50 (HCC-2998): 16.7 µM
- CC50 (HCC-2998; read-out: LC50): 56.7 µM
- GI50 (HCT-15): 2.07 µM
- CC50 (HCT-15; read-out: LC50): 9.93 µM
- GI50 (HT29): 3.21 µM
- CC50 (HT29; read-out: LC50): 36.4 µM
- GI50 (KM12): 16.9 µM
- CC50 (KM12; read-out: LC50): > 100 µM
- GI50 (SF-268): 17.7 µM
- CC50 (SF-268; read-out: LC50): > 100 µM
- GI50 (SF-295): 13.3 µM
- CC50 (SF-295; read-out: LC50): 52.8 µM
- GI50 (SF-539): 14.7 µM
- CC50 (SF-539; read-out: LC50, SF-539, 48 h): 52.9 µM
- GI50 (MALME-3M): 15.1 µM
- CC50 (MALME-3M; read-out: LC50): 54.2 µM
- GI50 (M14): 14.1 µM
- CC50 (M14; read-out: LC50): 56.9 µM
- GI50 (SK-MEL-28): 15.5 µM
- CC50 (SK-MEL-28; read-out: LC50): 53.9 µM
- GI50 (SK-MEL-5): 16.3 µM
- CC50 (SK-MEL-5; read-out: LC50): 55.6 µM
- GI50 (UACC-257): 16.2 µM
- CC50 (UACC-257; read-out: LC50): 55.7 µM
- GI50 (UACC-62): 11.4 µM
- CC50 (UACC-62; read-out: LC50): 49.1 µM
- GI50 (OVCAR-3): 17.9 µM
- CC50 (OVCAR-3; read-out: LC50): 70.5 µM
- GI50 (OVCAR-4): 14.7 µM
- CC50 (OVCAR-4; read-out: LC50): 57.2 µM
- GI50 (OVCAR-5): 15 µM
- CC50 (OVCAR-5; read-out: LC50): 53.9 µM
- GI50 (OVCAR-8): 14.8 µM
- CC50 (OVCAR-8; read-out: LC50): 54.5 µM
- GI50 (SK-OV-3): 15.3 µM
- CC50 (SK-OV-3; read-out: LC50): 59.5 µM
- GI50 (786-0): 14.8 µM
- CC50 (786-0; read-out: LC50): 55.9 µM
- GI50 (A498): 12.4 µM
- CC50 (A498; read-out: LC50): 50.8 µM
- GI50 (CAKI-1): 11.2 µM
- CC50 (CAKI-1; read-out: LC50): 54.7 µM
- GI50 (RXF 393): 12.8 µM
- CC50 (RXF 393; read-out: LC50): 57.1 µM
- GI50 (SN12C): 14.4 µM
- CC50 (SN12C; read-out: LC50): 53.8 µM
- GI50 (TK-10): 15.8 µM
- CC50 (TK-10; read-out: LC50): 54.7 µM
- GI50 (UO-31): 11.4 µM
- CC50 (UO-31; read-out: LC50): 48.4 µM
- GI50 (MCF7): 2.37 µM
- CC50 (MCF7; read-out: LC50): 34.6 µM
- GI50 (HS 578T): 15.8 µM
- CC50 (HS 578T; read-out: LC50): > 100 µM
- GI50 (MDA-MB-468): 11 µM
- CC50 (MDA-MB-468; read-out: LC50): 56 µM
